This is an account of results in patent publication US20080293931A1, “Methods and compositions for the removal of nucleic acid amplification inhibitors” (priority 2006, published 2008).

The subject of one data set is E. coli DNA. Description: PCR of seeded E. coli DNA after PIR treatment of aqueous HA samples (decade of dilution necessary for successful PCR). The settings on record: for Typical dilution decade for PCR / range of dilutions (dilution decade for PCR): PIR 1 M, aqueous humic samples seeded with E. coli DNA, HAi avg 6,500-12,300 depending on compound (Table 6 c2). Here is the method:
Consideration of dilution factors for successful PCR must also be reviewed. In untreated soil extracts containing DNA of interest, successful PCR of the extracted DNA may occur when the polymerase inhibitor is diluted sufficiently such that inhibition is suppressed and PCR may occur. Typical values for the dilution decade at which PCR is successful in samples containing humic materials and DNA of interest are often around decade four (1×10^4). Accordingly, a dilution factor of 10,000 would be necessary for successful PCR in a typical soil extract/sample. This magnitude of dilution may also impact PCR sensitivity for DNA/species already present at low concentrations and result in not identifying an organism that was present in the original sample extract.
Using this approach for presenting the HA removal data allows for the determination of a PIR compound's effectiveness for HA removal (ε) and compatibility for application in PCR systems via dilution data for PCR.

The subject of another data set is seeded E. coli DNA. Description: PCR after PIR treatment of soil extracts (dilution to achieve PCR). The note with it: for dilution decade at which PCR is achieved, on average: 100 mM PIR, soil extracts (Los Alamos Airport Soil).
Data set [1] is described as follows: Humic acid (HA) removal from aqueous commercial HA solutions by PIR compounds, fluorimetric HA determination. The note with it: for performance as PIR compound (in words): commercial humic acid solutions. The protocol:
Humic solutions were in 1×TAE buffer at RT with pH˜7. […] Samples from PIR experiments utilizing these materials were diluted, using 1×TAE, to concentrations falling within the linear response region representative of the humic material used.
In this study, when samples were interrogated for humic acid concentrations via fluorimetry, known concentrations of commercial humic acids were compared to known concentrations of humic standards.
FIG. 1 compares the HA removal from samples containing DNA of interest to the molar concentration of varied PIR compounds by plotting an HA reduction factor as the initial [HA] divided by [HA] following treatment with PIR compounds. The commercially available PIR kit, from Mo-BIO, is placed on FIG. 1 for comparison and was arbitrarily assigned a molar concentration of 1 for convenience. […] The data shown in FIG. 1 were generated from varied initial [HA], ranging from ˜5,000 to 300,000 mg/L HA. These varied initial [HA] values represent a “worst case” scenario and these are in comparison to initial [HA] in extractions from problematic soils generating humic acid concentrations typically less than 5,000 mg/L.
FIG. 2 plots the data from the same experiments represented in FIG. 1, but applying a different approach for data metric. FIG. 2 plots a dimensionless HA removal efficiency (or efficacy) value versus the decade of dilution necessary for successful PCR. The efficiency of HA removal is defined in equation 1 as the initial [HA] minus the final [HA] divided by the initial [HA]. This is essentially a percent removal approach.
Efficiency=[HA]i−[HA]f/[HA]; (1)
To further discriminate efficiency values greater than 0.99, the efficiency was subtracted from the integer value of 1, and the −log was taken of 1-efficiency to generate a non-negative value indicative of HA removal efficiency with greater level of discrimination and resolution of values with high degrees of HA removal. This is described by equation 2.

Data set [2] is described as follows: Stability of PIR compound in aqueous solution.
Data set [3] can be described thus: Humic acid removal from soil extracts (Los Alamos Airport Soil) by PIR compounds. The settings on record: 100 mM PIR, HA 7,600 mg/L. The protocol:
Aqueous samples of humic solutions were interrogated via fluorimetry on a Jobin Jvon Spex Fluorolog II with an excitation wavelength of 471 nm, an emission wavelength of 529 nm, with slits @ 10 nm bandpass, pmt bias of 950V, 1 second integration per reading and 10 readings per sample or <0.1% RSD per sample. Humic solutions were in 1×TAE buffer at RT with pH˜7. […] Samples from PIR experiments utilizing these materials were diluted, using 1×TAE, to concentrations falling within the linear response region representative of the humic material used.

Another data set concerns B. anthracis Sterne DNA. The settings on record: PIR (thiamine) treated; for B. anthracis per rxn: at 1st positive dilution; for 1st DNA dilution with positive PCR: spiked with B. anthracis Sterne DNA.
[4] abbreviates: PIR 1 M, aqueous humic samples seeded with E. coli DNA, HAi avg 6,500-12,300 depending on compound (Table 6 c2).

Several values for one entry are separate records, joined by “and”; a condition that tells them apart may be missing. Equal values may be shown once. Where a name gives a salt, the structure may show the parent alone. Read-outs that look alike come from different tables or passages of the source.

For `Cc1ncc(CO)c(CN)c1O` [PDA, Pyridoxamine], the Decade of dilution with E. coli DNA (1M PDA in phosphate buffer, 30 days storage, 4 C., dark, HA avg ~10,000 mg/L) is 0; in the data set on E. coli DNA (1M PDA in phosphate buffer, 30 days storage, 25 C., dark, HA avg ~10,000 mg/L), 0; in the data set on E. coli DNA (1M PDA in phosphate buffer, 30 days storage, 25 C., light, HA avg ~10,000 mg/L) it was 0; in the data set on E. coli DNA (1M PDA in phosphate buffer, 30 days storage, −20 C., dark, HA avg ~10,000 mg/L), 0; in the data set with E. coli DNA (2.9M PDA in phosphate buffer, 30 days storage, 4 C., dark, HA avg ~10,000 mg/L), 0; in the data set with E. coli DNA (2.9M PDA in phosphate buffer, 30 days storage, 25 C., dark, HA avg ~10,000 mg/L) it was 1. Moreover, the Decade of dilution with E. coli DNA (2.9M PDA in phosphate buffer, 30 days storage, 25 C., light, HA avg ~10,000 mg/L) stood at 1; in the data set with E. coli DNA (2.9M PDA in phosphate buffer, 30 days storage, −20 C., dark, HA avg ~10,000 mg/L), 0; with E. coli DNA (2.9M PDA solutions freshly prepared (Day 0)) it was 0. In addition, in the data set with E. coli DNA, the “Typical dilution decade for PCR” value was found to be 1. In the data set with E. coli DNA, the “range of dilutions (dilution decade for PCR)” value is recorded as 0-2. Moreover, in the data set on E. coli DNA (aqueous HA samples seeded with E. coli DNA), the “PCR products imaged after gel electrophoresis (band intensity)” value is “often low and weak”. The “dilution decade at which PCR is achieved, on average” value in the data set with seeded E. coli DNA was 1.0. For the same molecule, the “PCR products following gel electrophoresis (band intensity)” value in the data set on seeded E. coli DNA (PIR treated soil samples) is reported as “typically weak”.

As to `O=C(C[n+]1ccsc1)c1ccc([N+](=O)[O-])cc1.[Br-]` [PTB-NO2, 4-Nitro-Phenacyl Thiazolium Bromide], the entries for the “performance as PIR compound (in words)” value in data set [1] and in data set [1] (listed as PTB-N) were “did not perform well” and “poor performance”, respectively. For the same molecule, the “stability in aqueous solutions” value in data set [2] is “not stable”. The “time to orange/red precipitate following dissolution” value in data set [2] (aqueous solutions) is reported as “approximately 1 hour”.

Turning to `Cc1ncc(C[n+]2csc(CCO)c2C)c(N)n1` [THI, Thiamine Hydrochloride], in data set [1] (setting [4]), the “Average Efficiency, ε” value came to 2.13 and the “Avg Reduction Factor” value is 258. Also, in the data set with E. coli DNA, the “Typical dilution decade for PCR” value was 0 and the “range of dilutions (dilution decade for PCR)” value is on record as 0-3. In data set [3], this molecule showed an average efficiency values of 1.4 and an average reduction factors of 45. The “dilution decade at which PCR is achieved, on average” value in the data set with seeded E. coli DNA is given as 1.8. In addition, in the data set on B. anthracis Sterne DNA (soil “A”), the “B. anthracis per rxn” value was ~10^4 cell equivalents and the “1st DNA dilution with positive PCR” value is listed as 10^0. Also, in the data set on B. anthracis Sterne DNA (soil “B”), the “B. anthracis per rxn” value is ~10^4 cell equivalents and the “1st DNA dilution with positive PCR” value was 10^0. Also, in the data set with B. anthracis Sterne DNA (soil “C”), the “B. anthracis per rxn” value was ~10^4 cell equivalents and the “1st DNA dilution with positive PCR” value is 10^0. In the data set with bacterial 16S rDNA, the “improvement of purity of DNA samples” value was “two orders of magnitude” and the “increase in purity of soil DNA extract” value is not below 10 fold. Also, in the data set on bacterial 16S rDNA (Hydrochloride), the “1st DNA dilution with positive PCR” value is 10^−2 and 10^−1; the “DNA dilution with positive PCR” value was 10^0 and 10^−1.
